From patent US20240268381A1, “Agricultural Chemical Formulation” (ExxonMobil Chemical Patents Inc., priority 2021, published 2024)

Experiments:
Type in all cases: physicochemical
[1] = Hydrolytic stability in pH 4.5 or pH 8.5 buffer; details: 54° C., 14 days, 13C NMR; for Hydrolysis at pH 4.5: pH 4.5 buffer; for Hydrolysis at pH 8.5: pH 8.5 buffer
Description: Hydrolytic stability was characterized by mixing the tested solvent with an excess of pH 4.5 or pH 8.5 buffer in a vial which was placed in a heated water bath (54° C.). After 14 days, the vial was cooled to room temperature and the content was allowed to separate into aqueous and organic (solvent) phases. The solvent phase was transferred to a clean vial and sodium sulfate was added to remove residual water. The mixture was filtered to obtain the solvent filtrate which was analyzed by ^13C NMR to measure the amount of hydrolysis products (acid or alcohol), if any.
Hydrolytic stability for solvents E3, C1, C2, and C6-C8 was not tested. No hydrolysis is expected for aromatic solvent C2 due to lack of hydrolysable bonds.

[2] = Solvency test, active ingredient bromoxynil octanoate; details: wt % active ingredient in solution; highest concentration with no crystals at room temperature
Description: (§1) Solvency of solvents E1-E5 and C1-C8 was tested by dissolving various solid active ingredients in each solvent. The following pesticides were tested as active ingredients: trifluralin, fluroxypyr, bromoxynil octanoate, and 2-methyl-4-chlorophenoxyacetic acid (MCPA). Solvency was characterized by the weight ratio of an active ingredient in a solvent and was determined by adding 0.5 gram of active ingredient to a vial equipped with a stir bar and then charging the solvent to achieve a desired concentration. The vials were capped and placed into a water bath kept at a temperature 5 to 10° C. below the melting point of tested pesticide. The mixture was stirred in the vial for 24 hours. If the active ingredient was fully dissolved, the mixture was transferred to a room temperature water bath. If no active ingredient crystals were formed, a higher concentration of active ingredient was tested. Conversely, if active ingredient crystals were formed, a lower concentration of active ingredient was tested. Solubility was recorded as the highest concentration of active ingredient in the tested solvent with no formation of crystals. Concentrations were tested at a 5% interval. For example, if the active ingredient was dissolved at 50%, 55% would be the next concentration to be tested. Concentrations below 15 wt % were not tested.

[3] = Water content of the solvents, Karl Fischer titration (ASTM E1064)
Description: (§2) The following properties of the solvents were tested: • Kinematic viscosity at 25° C. […] The funnel containing the mixture was inverted several times. The water and solvent phases were allowed to separate for 24 hours, resulting in two distinct phases. For water solubility in solvent, the solvent layer was transferred to a sample vial and was tested for water content according to ASTM E1064. For solvent solubility in water, the water layer was transferred to a sample vial and was tested by a gas chromatography test method for solvent content. Water content, water solubility, and solvent solubility in water were not tested for solvents C2-C5.

[4] = Solvency test, active ingredient fluroxypyr; details: wt % active ingredient in solution; highest concentration with no crystals at room temperature
Description: as §1

[5] = Solvency test, active ingredient MCPA; details: wt % active ingredient in solution; concentrations below 15 wt % not tested
Description: as §1

Pour point (ASTM D5950) = test: Pour point (ASTM D5950)
Description: as §2

[6] = Solvent solubility in water; details: 20 g solvent mixed with 20 g water, phases separated 24 hours, water layer tested by gas chromatography
Description: as §2

[7] = Solvency test, active ingredient trifluralin; details: wt % active ingredient in solution; highest concentration with no crystals at room temperature
Description: as §1

[8] = Kinematic viscosity at 25° C. (ASTM D7042)
Description: as §2

[9] = Density at 25° C. (ASTM D4052)
[10] = Water solubility in solvent; details: 20 g solvent mixed with 20 g water, phases separated 24 hours, solvent layer tested
Description: as §2

SMILES	Hydrolysis at pH 4.5 [1] [%]	Hydrolysis at pH 8.5 [1] [%]	Solvency, Bromoxynil Octanoate [2] [wt %]	Water content [3] [ppm w/w]	Solvency, Fluroxypyr [4] [wt %]	Solvency, MCPA [5] [wt %]	Pour Point (Pour point (ASTM D5950)) [°C]	Solvent solubility in water [6] [wt %]	Solvency, Trifluralin [7] [wt %]	KV25 [8] [cSt]	Density at 25° C. [9] [g/mL]	Water solubility in solvent [10] [vol %]
CC(C)(C)C(=O)OCc1ccccc1 [Solvent E4, Benzyl pivalate]	0.3	<1.0	68.8	232	66.0	<15	−90	0.010	69.5	3.40	0.966	0.422
CC(=O)OCc1ccccc1 [Solvent C4, Benzyl acetate, reference compound]	22.5	6.8	72.9		59.8	15.1	−90		61.2	2.20	1.051	
CN(C)C(=O)CCCCCC(C)(C)C [Solvent E5, N,N-dimethyl neodecanamide]	<1.0	<1.0	63.5	589	63.0		−72	0.141	65.0	7.29	0.883	2.457
CC(=O)OCCCCCC(C)C [Solvent C7, isooctyl acetate]	12.6	<1.0	70.9	699	60.2	<15	−105	0.005	77.3	1.69	0.868	0.448
O=C(OC1CCCCC1)c1ccccc1 [Solvent E2, Cyclohexyl benzoate]	2.7	1.7	68.3	102	64.8	<15	−54	0.007	66.8	11.96	1.042	0.394
CC(=O)OCCCCCCC(C)C [Solvent C8, isononyl acetate]			67.5	722	<15	<15	−102	<0.001	72.9	2.15	0.867	0.369

Other lines, results leading:

Hydrolysis at pH 4.5 [1] [%]	Hydrolysis at pH 8.5 [1] [%]	Solvency, Bromoxynil Octanoate [2] [wt %]	Water content [3] [ppm w/w]	Solvency, Fluroxypyr [4] [wt %]	Solvency, MCPA [5] [wt %]	Pour Point (Pour point (ASTM D5950)) [°C]	Solvent solubility in water [6] [wt %]	Solvency, Trifluralin [7] [wt %]	KV25 [8] [cSt]	Density at 25° C. [9] [g/mL]	Water solubility in solvent [10] [vol %]	SMILES
<1.0	3.7	73.0	499	61.3	<15	−81	0.008	72.6	3.38	0.992	0.386	CCC(C)OC(=O)c1ccccc1 (centres unmarked) [Solvent E1, Secondary butyl benzoate]
		62.1	332		<15	−69	<0.001	54.5	9.60	0.949	0.173	CC(C)CCCCCCCOC(=O)c1ccccc1 [Solvent C6, isodecyl benzoate]
0.5	6.7	69.7			<15	−36		62.8	3.11	1.001		CCCCOC(=O)c1ccccc1 [Solvent C3, Butyl benzoate, reference compound]
<1.0	<1.0	60.2		62.2	<15	−6		62.4	5.33	0.876		CCCCCCCCCC(=O)N(C)C [Solvent C5, linear N,N-dimethyldecanamide, reference compound]
		68.6	113	50.8	<15		<0.001	64.1	6.53	0.962	0.265	CC(C)CCCCCOC(=O)c1ccccc1 [Solvent E3, Isooctyl benzoate]
		48.3	269	<15	<15		0.003	37.1	66.27	1.047	0.699	CCC(C)OC(=O)c1ccc(C(=O)OC(C)CC)o1 (centres unmarked) [Solvent C1, Di-sec butyl furan-2,5-dicarboxylate, reference compound]
